Data: patent US20120121720A1, “Modulation of Beta 2 Adrenergic Receptors by Inhibitors of EGLN3 or pVHL” (priority 2009, published 2012)

Columns and labels:
asthma = assay: Patient case examples: asthma; format: in vivo, human
Experimental: A person with asthma, wherein symptoms are not improving despite receiving treatment with 250 ug beclomethasone taken in combination with an inhaler containing albuterol (when needed) is begun on DMOG at a dose of 20 mg/kg three times per day. Patient's asthma improves.
A person with asthma exacerbated by treatment with budesonide and formoterol at a dose per actuation of 160 and 4.5 mcg, respectively. Patient is begun on DMOG at a dose of 100 mg/kg once per day. Patient's asthma improves. EXAMPLE HI
A person with asthma exacerbated by treatment with fluticasone and salmeterol. Patient is begun on DMOG at a dose of 30 mg/kg twice per day. Patient's asthma improves.
A person with asthma exacerbated wherein symptoms are not improving despite receiving treatment with albuterol. Patient is begun on DMOG at a dose of 25 mg/kg three times per day. Patient's asthma improves.
A person with asthma exacerbated by treatment with budesonide and formoterol at a dose per actuation of 150.0 and 5.0 mcg, respectively. Patient is begun on malonic acid compound at a dose of 120 mg/kg once per day. Patient's asthma improves.

heart failure = assay: Patient case examples: heart failure (ejection fraction, dyspnea); format: in vivo, human; conditions: for Ejection fraction / Ejection fraction response: baseline 25%; for Ejection fraction: within one month
Experimental: The patient is started on nitroglycerin patch (Nitro-bid), 2 inches, twice a day and DMOG at a dose of 100 mg/kg once per day. Ejection fraction improves to 40% within one month.
The patient is started on nitroglycerin patch (Nitro-bid), 2 inches, twice a day and DMOG at a dose of 25 mg/kg three times per day. Ejection fraction improves to 42% within one month.
The patient is started on intravenous nitroglycerin at 20 μg per minute and DMOG at a dose of 50 mg/kg three times per day. Ejection fraction improves to 42% within one month.
A person with heart failure remains short of breath despite increasing doses of nitroglycerin.

muscle wasting = assay: Patient case examples: lymphoma and muscle wasting, six minute walk test; format: in vivo, human
Experimental: A person with lymphoma and muscle wasting. Patient is started on carvedilol at 12.5 BID and isosorbide dinitrate at 10 mg POTID. Patient is started on an intravenous formulation of DMOG at a concentration of […]. Patient's strength improves as evidenced by a six minute walk test.
A person with lymphoma and muscle wasting. Patient is started on alprenolol and isosorbide dinitrate. Patient is started on an intravenous formulation of DMOG at a concentration of 20.0 mg/mL. Patient's strength improves as evidenced by a six minute walk test.

hypertension = assay: Patient case examples: hypertension; format: in vivo, human; conditions: for Blood pressure: baseline 180/95 on hydralazine hydrochloride
Experimental: A person with hypertension and not responding to hydralazine hydrochloride (i.e., blood pressure 180/95). […] Patient is begun on DMOG at a dose of 30 mg/kg twice per day. Patient improves (i.e., blood pressure 160/90).
They are started on DMOG at a dose of 30 mg/kg twice per day. Patient improves. No limiting hypertension is noted.
A person with hypertension is not responding to hydralazine hydrochloride (i.e., blood pressure 180/95). […] Patient is begun on DMOG at a dose of 30 mg/kg twice per day. Patient improves (i.e., blood pressure 160/90).

unstable angina = assay: Patient case examples: unstable angina with nitroglycerin tolerance; format: in vivo, human; conditions: IV nitroglycerin tolerance over 48 hours
Experimental: A person with unstable angina on IV nitroglycerin develops tolerance over 48 hours as evidenced by recurrent chest pains despite increasing doses of drug.
A person with unstable angina on IV nitroglycerin develops tolerance over 48 hours as evidenced by recurrent chest pains despite increasing doses of drug. […] The patient improves.

[1] = tested on: Chronic Obstructive Pulmonary Disease; assay: Patient case examples: Chronic Obstructive Pulmonary Disease; format: in vivo, human
Experimental: Patient started on DMOG at a dose of 50 mg/kg three times per day. Patient improves as evidenced by improved spirometry. A patient having Chronic Obstructive Pulmonary Disease, receiving supplemental oxygen and treated with salbutamol and prednisone is started on DMOG at a dose of 20 mg/kg three times per day.

cystic fibrosis = assay: Patient case examples: cystic fibrosis; format: in vivo, human
Experimental: A person with cystic fibrosis presents with hypoxemia and pulmonary hemorrhage. They are begun on ethyl nitrite 20 parts per million in nitrogen, N-acetylcysteine 50 mg/kg Q 6 hours and ascorbate IV 1 gram Q 6 hours, along with DMOG at a dose of 40 mg/kg three times per day. […] They are discharged on day 7. A person with cystic fibrosis presents with labored breathing and increased sputum production.

sickle cell disease = assay: Patient case example: sickle cell disease crisis; format: in vivo, human; conditions: Example XX; two units of blood, 80 ppm inhaled ethyl nitrite and 100 mg/kg DMOG
Experimental: A person with homozygous sickle cell disease presents in crisis. The patient complains of severe abdominal and chest pain and is somewhat disoriented. They receive two units of blood while being administered 80 ppm inhaled ethyl nitrite and 100 mg/kg of DMOG.

pulmonary edema = assay: Patient case examples: pulmonary edema; format: in vivo, human; conditions: over the day
Experimental: A person presents complaining of shortness of breath. […] An intravenous line is inserted and the patient is started on IV infusion of […] per kilogram per minute nitroglycerin. They are also given an intravenous formulation of DMOG at a concentration of 10.0 mg/ml. Their symptoms improve over the day, during which time their arteriolar PO2 increases from 70 to 85 mm Hg.
A person presents complaining of shortness of breath. […] The patient is started on intravenous nitroglycerin at 25 μg per minute and DMOG at a dose of 25 mg/kg three times per day. Their symptoms improve over the day, during which time their arteriolar PO2 increases from 60 to 85 mm Hg.

impaired sense of smell = assay: Patient case example: impaired sense of smell; format: in vivo, human; conditions: Example XXIII; after steroidal nasal spray; DMOG nasal spray 1 mg/ml
Experimental: DMOG is administered via nasal spray in amount 1 mg/ml. Patient sense of smell improves.

[2] = tested on: disorders of EXAMPLES I-XXIV; conditions: Examples I-XXIV repeated; peptide 10-100 mg orally once-, twice- or three times-daily
[3] = target: EGLN3 binding to the β2AR (Homo sapiens, UniProt P07550)

In the case of `COC(=O)CNC(=O)C(=O)OC` [DMOG, dimethyloxalylglycine], the “Patient's asthma” value (asthma; Example I, person not improving on 250 ug beclomethasone + albuterol inhaler, DMOG 20 mg/kg three times per day) is reported as “improves”, the “Patient's asthma” value (asthma; Example II, person on budesonide/formoterol 160/4.5 mcg, DMOG 100 mg/kg once per day) is reported as “improves” and the “Patient's asthma” value (asthma; Example III, person on fluticasone and salmeterol, DMOG 30 mg/kg twice per day) is reported as “improves”. The “Patient's asthma” value (asthma; Example IV, person not improving on albuterol, DMOG 25 mg/kg three times per day) was “improves”, the Ejection fraction (heart failure; Example V, on carvedilol, nitroglycerin patch 2 inches twice a day + DMOG 100 mg/kg once per day) was 40% and the Ejection fraction (heart failure; Example VI, on carvedilol 50 mg BID, nitroglycerin patch 2 inches twice a day + DMOG 25 mg/kg three times per day) was 42%. The Ejection fraction (heart failure; Example VII, on carvedilol 25 mg divided BID, intravenous nitroglycerin 20 μg per minute + DMOG 50 mg/kg three times per day) was 42%, the “Patient's strength, six minute walk test” value (muscle wasting; Example IX, on alprenolol and isosorbide dinitrate, intravenous DMOG formulation 20.0 mg/mL) was “improves” and the “Patient's strength, six minute walk test” value (muscle wasting; Example VIII, on carvedilol 12.5 BID and isosorbide dinitrate 10 mg, intravenous DMOG formulation 25.0 mg/m) was “improves”. For the same molecule, the Blood pressure (hypertension; Example X, propranolol, DMOG 30 mg/kg twice per day) was 160/90, the Hypertension response (hypertension; Example XI, person after nitropaste, DMOG 30 mg/kg twice per day) was “improves” and the Blood pressure (hypertension; Example XIII, metoprolol, DMOG 30 mg/kg twice per day) was 160/90. The “Response to nitroglycerin after tolerance” value (unstable angina; Example XII, intravenous DMOG formulation 15.0 mg/mL) was “responds to nitroglycerin”, the “Patient outcome, unstable angina” value (unstable angina; Example XIV, intravenous DMOG formulation 10.0 mg/ml) was “improves” and the “Patient outcome, spirometry” value ([1]; Example XV, after albuterol, DMOG 50 mg/kg three times per day) was “improves”. For the same molecule, the “Need for supplemental oxygen” value ([1]; Example XVI, on supplemental oxygen, salbutamol and prednisone, DMOG 20 mg/kg three times per day) was “no longer requires supplemental oxygen”, the Sputum production (cystic fibrosis; Example XIX, after HNO 10 ppm, DMOG 20 mg/kg three times per day, over two days) was “decreases in sputum production” and the “Pulmonary hemorrhage and state of health” value (cystic fibrosis; Example XVIII, ethyl nitrite 20 ppm, N-acetylcysteine 50 mg/kg Q 6 hours, ascorbate IV 1 gram Q 6 hours + DMOG 40 mg/kg three times per day, over three days) was “the hemorrhage stops and the patient reverts to normal state of health”. The “Symptoms of sickle cell crisis” value (sickle cell disease) was “All symptoms resolve”, the “Symptoms of pulmonary edema” value (pulmonary edema; Example XXI, IV nitroglycerin 0.1 mg per kilogram per minute + intravenous DMOG formulation 10.0 mg/ml) was “improve” and the “Arteriolar PO2” value (pulmonary edema; Example XXI, from 70, IV nitroglycerin 0.1 mg per kilogram per minute + intravenous DMOG formulation 10.0 mg/ml) was 85 mm Hg. For the same molecule, the “Arteriolar PO2” value (pulmonary edema; Example XXII, from 60, intravenous nitroglycerin 25 μg per minute + DMOG 25 mg/kg three times per day) was 85 mm Hg, the “Symptoms of pulmonary edema” value (pulmonary edema; Example XXII, intravenous nitroglycerin 25 μg per minute + DMOG 25 mg/kg three times per day) was “improve” and the Sense of smell (impaired sense of smell) was “improves”.
In the case of `N=O` [HNO], the Symptomatic status (cystic fibrosis; Example XIX, HNO 10 ppm in nitrogen) is reported as “improvements in their symptomatic status”.
With `N[C@@H](CCC(=O)N[C@@H](CSN=O)C(=O)NCC(=O)O)C(=O)O` [S-nitrosoglutathione] the Dyspnea and angina (heart failure; Example XVII, short of breath despite nitroglycerin, S-nitrosoglutathione 0.1 μg/kg/min) was “improvement of dyspnea and relief of angina”.
In the case of `CC(C)(C)NCC(O)c1ccc(O)c(CO)c1` (stereo not drawn) [albuterol], the “Patient outcome, COPD” value ([1]; Example XV, albuterol before DMOG) is reported as “no improvement”.
In the case of `COc1ccccc1OCCNCC(O)COc1cccc2[nH]c3ccccc3c12` (stereo not drawn) [carvedilol], the Ejection fraction response (heart failure; Example V, carvedilol before DMOG) is reported as “without ejection fraction improving”, the Ejection fraction response (heart failure; Example VI, carvedilol 50 mg BID before DMOG) is reported as “without ejection fraction improving” and the Ejection fraction response (heart failure; Example VII, carvedilol 25 mg divided BID before DMOG) is reported as “without ejection fraction improving”.
`O=C(O)CC(=O)O` [malonic acid compound, malonic acid] was tested, and the “Patient's asthma” value (asthma; Example XXIV, on budesonide/formoterol 150.0/5.0 mcg, malonic acid compound 120 mg/kg once per day) was “improves”.
For `COCCc1ccc(OCC(O)CNC(C)C)cc1` (stereo not drawn) [metoprolol], the Hypertension response (hypertension; Example XIII, metoprolol before DMOG, blood pressure 180/95) was “without improvement”.
In the case of `CC(C)NCC(O)COc1cccc2ccccc12` (stereo not drawn) [propranolol], the Hypertension response (hypertension; Example X, propranolol before DMOG, blood pressure 180/95) is reported as “without improvement”.
EAISFLLSLIDRLVLY was tested, and the “Patient outcome in each EXAMPLE” value [2] was “exhibits improvement”, the “Binding of EGLN3 to the β2AR” value [3] was “inhibits binding” and the “Receptor expression in cells” value (β2AR) was “increases receptor expression”.
